From the NIST ThermoML archive (doi:10.1016/j.jct.2018.12.022)

Assays:
[1] = mn = molality of the nth substance listed, in mol/kg; conditions: 85 kPa, Liquid; for viscosity: Falling or rolling sphere viscometry; for speed of sound: Frequency=3 MHz, Single path-length method; for mass density: Vibrating tube method
[2] = refractive index (Na D-line) (dimensionless); mn = molality of the nth substance listed, in mol/kg; conditions: 85 kPa, Liquid, Standard Abbe refractometry

C[C@H](N)C(=O)[O-].C[N+](C)(C)CCO [2-hydroxy-N,N,N-trimethylethanaminium L-alaninate] + O
Conditions | mass density, [1] [kg/m3] | refractive index, [2] | speed of sound, [1] [m/s] | viscosity, [1] [mPa·s]
288.15 K, m1 = 0.0108 | 999.398 | 1.3338 | 1468 | 1.143
288.15 K, m1 = 0.0204 | 999.663 | 1.334 | 1469.3 | 1.147
288.15 K, m1 = 0.03 | 999.914 | 1.3342 | 1470.7 | 1.151
288.15 K, m1 = 0.0401 | 1000.17 | 1.3345 | 1472.1 | 1.155
288.15 K, m1 = 0.0509 | 1000.44 | 1.3349 | 1473.6 | 1.16
288.15 K, m1 = 0.0583 | 1000.62 | 1.3351 | 1474.6 | 1.163
298.15 K, m1 = 0.0108 | 997.345 | 1.3331 | 1498.4 | 0.897
298.15 K, m1 = 0.0204 | 997.608 | 1.3333 | 1499.7 | 0.9
298.15 K, m1 = 0.03 | 997.858 | 1.3335 | 1501 | 0.903
298.15 K, m1 = 0.0401 | 998.115 | 1.3337 | 1502.4 | 0.906
298.15 K, m1 = 0.0509 | 998.382 | 1.3341 | 1503.9 | 0.91
298.15 K, m1 = 0.0583 | 998.553 | 1.3343 | 1504.9 | 0.912
308.15 K, m1 = 0.0108 | 994.326 | 1.3319 | 1521.6 | 0.732
308.15 K, m1 = 0.0204 | 994.588 | 1.3321 | 1522.9 | 0.735
308.15 K, m1 = 0.03 | 994.839 | 1.3323 | 1524.2 | 0.737
308.15 K, m1 = 0.0401 | 995.097 | 1.3326 | 1525.6 | 0.74
308.15 K, m1 = 0.0509 | 995.362 | 1.333 | 1527 | 0.743
308.15 K, m1 = 0.0583 | 995.534 | 1.3333 | 1528 | 0.745
318.15 K, m1 = 0.0108 | 990.514 | 1.3304 | 1537.5 | 0.604
318.15 K, m1 = 0.0204 | 990.779 | 1.3306 | 1538.8 | 0.607
318.15 K, m1 = 0.03 | 991.029 | 1.3309 | 1540 | 0.609
318.15 K, m1 = 0.0401 | 991.289 | 1.3312 | 1541.3 | 0.611
318.15 K, m1 = 0.0509 | 991.561 | 1.3315 | 1542.8 | 0.613
318.15 K, m1 = 0.0583 | 991.728 | 1.3318 | 1543.7 | 0.615
